{"source": "patent EP4257130A1", "about": "“INOBRODIB FOR USE IN THE TREATMENT OF PULMONARY ARTERIAL HYPERTENSION” (Justus-Liebig-Universität Gießen, priority 2022, dated 2023)", "key": {"PAH-PCLS": {"system": "PAH-PCLS", "test": "Vascular remodelling (medial wall thickness) in precision-cut lung slices ex vivo", "type": "cell-based, Mensch", "settings": "human PAH-PCLS, 200 µM on days 2 and 6, fixed day 10, vessels 20-150 µm, vs. DMSO", "source_text": "Lungengewebeproben wurden von Patienten mit IPAH entnommen. Aus den mit 3% niedrigschmelzender Agarose gefüllten Lungenproben von Patienten mit IPAH wurden mit einem Vibratom (Leica Biosystems) Gewebeschnitte (400 µm dick) angefertigt. Die Lungengewebeschnitte wurden in DMEM-GlutaMAX-Medium mit 10 % fetalem Kälberserum, 1 % Penicillin/Streptomycin und 0,1 % Amphotericin B (Thermo Fisher Scientific) kultiviert, und die Behandlung wurde am zweiten Tag eingeleitet. Die Substanz CCS1477 wurde in einer Konzentration von 200 µM an den Tagen 2 und 6 verabreicht. Am 10. Tag wurde das Gewebe in 4% Paraformaldehyd (Roti-Histofix; Carl Roth) fixiert und in Paraffin eingebettet. Die mediale Wanddicke wurde in allen Gefäßen mit einer Größe von 20-150 µm in den Lungenschnitten gemessen.\nDas therapeutische Potenzial der EP300/CREBBP-Hemmung durch die Substanz CCS1477 wurde untersucht. Dazu wurde die Wirksamkeit auf PAH-FBs und PAH-SMCs geprüft, die aus den Lungenarterien von menschlichen PAH-Patienten und aus den Lungenarterien von Ratten mit MCT-PAH (Rattenmodell mit Monocrotalin) isoliert wurden. […] Die Wirkung der EP300-Hemmung auf das vaskuläre Remodelling wurde durch Quantifizierung der prozentualen medialen Wanddicke in den mit der Substanz CCS1477 inkubierten PCLS im Vergleich zu den mit DMSO inkubierten Kontrollen bewertet. […]"}, "PAH-FBs [1]": {"system": "PAH-FBs", "test": "Cell proliferation by BrdU incorporation in PAH fibroblasts", "type": "cell-based, Mensch", "settings": "PAH-FBs isolated ex vivo, various concentrations, 24 h, vs. DMSO", "source_text": "(§1) Diese Untersuchungen führten zu der Erkenntnis, dass die epigenetische Regulation der entwicklungsbedingten TF-Expression in der Lunge durch Modulation der EP300/CREBBP-Funktion rückgängig gemacht werden kann. Die Wirkung des niedermolekularen Inhibitors (Substanz, Wirkstoff) CCS1477 auf die Proliferation von Gefäßzellen, die Apoptose sowie die Gen- und Proteinexpression wurde mit Hilfe geeigneter Assays nach der Transfektion untersucht. Nachdem Zellen zur Subkonfluenz gewachsen sind, wurde ihnen mit steigenden Konzentrationen der selektive EP300-Inhibitor CCS1477 (Chemietek, Katalognummer: CT-CCS1477) hinzugefügt. Die aus PAH-Patienten isolierten FBs wurden also mit dem isoformselektiven HAT-Inhibitor CCS1477 behandelt. […]\n(§2) • Abbildung 1: Umkehrung von PAH-Phänotypen durch therapeutische Modulation der dysregulierten HATs EP300 und CREBBP ex vivo • A: PAH-FBs wurden mit siRNAs (siP300) behandelt, die auf EP300 abzielen (n=3), um die genspezifische funktionelle Rolle von EP300 bei der Hyperproliferation ex vivo 48 Stunden nach der Transfektion zu untersuchen. […] Skalenbalken: 50 µm. • E: Die Wirkung der P300-Inhibition (200 µM) auf den Gefäßumbau wurde durch Quantifizierung der prozentualen medialen Wanddicke in den mit dem EP300/CREBBP-Inhibitor CCS1477 inkubierten PCLS im Vergleich zu den mit DMSO inkubierten Kontrollen bewertet. […]"}, "FHR-PAH": {"system": "FHR-PAH", "test": "FHR-PAH rat model: right heart catheterisation and histology", "type": "in vivo, Fawn-hooded hypertensive Ratten", "settings": "FHR-PAH rats, three times weekly for two weeks", "source_text": "(§3) Um das therapeutische Potenzial der EP300/CREBBP-Hemmung in vivo weiter zu erforschen, haben die Erfinder Versuchstiere in drei verschiedenen Nagetiermodellen mit etablierter PAH mit der Substanz CCS1477 behandelt, wobei CCS1477 durch orale Verabreichung über zwei Wochen lang dreimal wöchentlich verabreicht wurde. Es wurden folgende drei verschiedenen Nagetiermodelle für eine PAH (FHR-PAH, MCT-PAH und SuHx-PAH) getestet: • Fawn-hooded hypertensive Ratten (FHR): Das ist ein genetischer Rattenstamm, bei dem PAH im Alter spontan auftritt und der ähnliche PAH-Anomalien aufweist, wie sie bei IPAH bei Menschen nach 40 Wochen auftreten. • Durch Monocrotalin (MCT) induziertes PAH-Rattenmodell. • Ein SUGEN5416/chronische Hypoxie (SuHx)-Rattenmodell für PAH, bei dem die Ratten eine einmalige Injektion von SUGEN5416 erhielten und anschließend einer chronischen Hypoxie (10% O2) ausgesetzt wurden (SuHx-PAH).\n(§4) Für die MCT-PAH wurden männlichen und weiblichen SD-Ratten (Sprague-Dawley-Ratten) subkutan 60 mg/kg MCT (Sigma, Katalog: C2401) injiziert, um PAH zu induzieren. Bei der SuHx-PAH erhielten SD-Ratten eine einmalige subkutane Injektion von SUGEN5416 (20 mg/kg) und wurden drei Wochen lang einer normobaren Hypoxie ausgesetzt, bevor sie für zwei Wochen an die Raumluft zurückkehrten. Zwei Wochen nach der MCT-Injektion bzw. drei Wochen nach der SUGEN5416-Injektion (sobald PAH festgestellt wurde) wurden die Ratten nach dem Zufallsprinzip in vier Gruppen eingeteilt und erhielten zwei Wochen lang dreimal wöchentlich entweder Vehikel (Verabreichung von 1 % Methylcellulose in destilliertem Wasser oder intratracheale Vernebelung von 4 % DMSO in PBS als Negativkontrolle), CCS1477 (Verabreichung von 10 mg/kg in 1 % Methylcellulose + destilliertem Wasser). Einjährige männliche und weibliche FHR-Ratten mit etablierter PAH wurden in dieselben vier Gruppen wie beim MCT-Modell eingeteilt und denselben Behandlungsmethoden unterzogen. Nach zweiwöchiger Behandlung wurde eine Rechtsherzkatheteruntersuchung bei geschlossenem Thorax durchgeführt, um folgende hämodynamischen Daten zu erfassen: Systolischer Rechtsventrikulärer Druck (RVSP), mittlerer PA-Druck (mPAP), Herzzeitvolumen (CO) und Schlagvolumen (SV). Der Gesamtwiderstand der Lunge (TPR) wurde durch Division von mPAP durch CO ermittelt. Nach der hämodynamischen Messung wurden den Ratten Gewebeproben entnommen. Die Experimente wurden gemäß den Richtlinien des Canadian Council on Animal Care durchgeführt. Alle Protokolle wurden von der institutionellen Ethikkommission für Tiere (Tierschutzausschuss der Universität Laval) geprüft und genehmigt (Protokollnummer 2019-018-2). Alle Experimente folgten den Richtlinien für die präklinische Forschung bei PAH.\n(§5) • Abbildung 1: Umkehrung von PAH-Phänotypen durch therapeutische Modulation der dysregulierten HATs EP300 und CREBBP ex vivo • A: PAH-FBs wurden mit siRNAs (siP300) behandelt, die auf EP300 abzielen (n=3), um die genspezifische funktionelle Rolle von EP300 bei der Hyperproliferation ex vivo 48 Stunden nach der Transfektion zu untersuchen. Die Zellproliferation wurde durch BrdU-Inkorporation bestimmt. Die Werte wurden auf scrambled siRNA (siScr) normalisiert und sind als Mittelwert ± SD angegeben (n=3, ungepaarter t-Test; *P < 0,05 vs. scrambled siRNA). • B: PAH-FBs wurden mit verschiedenen Konzentrationen des EP300/CREBBP-Inhibitors CCS1477 oder dem Lösungsmittel DMSO inkubiert, um die Wirkung der selektiven EP300/CREBBP-Inhibition auf die Zellproliferation (bewertet durch BrdU-Inkorporation) zu untersuchen. Als Vergleichssubstanz wurde ein weiterer EP300/CREBBP-Inhibitor (SGC-CBP30) parallel dazu unter denselben Bedingungen inkubiert. […]"}, "PAH-FBs [2]": {"system": "PAH-FBs", "test": "Apoptosis by Cell Death Detection ELISAPLUS in PAH fibroblasts", "type": "cell-based, Mensch", "settings": "PAH-FBs isolated ex vivo, various concentrations, 24 h, vs. DMSO", "source_text": "as §1, §2"}, "PAH-SMCs [3]": {"system": "PAH-SMCs", "test": "Apoptosis in PAH smooth muscle cells", "type": "cell-based, Mensch", "settings": "vs. DMSO", "source_text": "(§6) Diese Untersuchungen führten zu der Erkenntnis, dass die epigenetische Regulation der entwicklungsbedingten TF-Expression in der Lunge durch Modulation der EP300/CREBBP-Funktion rückgängig gemacht werden kann. Die Wirkung des niedermolekularen Inhibitors (Substanz, Wirkstoff) CCS1477 auf die Proliferation von Gefäßzellen, die Apoptose sowie die Gen- und Proteinexpression wurde mit Hilfe geeigneter Assays nach der Transfektion untersucht. Nachdem Zellen zur Subkonfluenz gewachsen sind, wurde ihnen mit steigenden Konzentrationen der selektive EP300-Inhibitor CCS1477 (Chemietek, Katalognummer: CT-CCS1477) hinzugefügt. Die aus PAH-Patienten isolierten FBs wurden also mit dem isoformselektiven HAT-Inhibitor CCS1477 behandelt. Gleichzeitig wurde den Zellen das Lösungsmittel DMSO (Sigma) mit entsprechenden Konzentrationen hinzugefügt.\n(§7) PAH-FBs wurden mit verschiedenen Konzentrationen der Substanz CCS1477 oder dem Lösungsmittel DMSO inkubiert, um die Zellproliferation und die Induktion von Apoptose 24 Stunden danach zu untersuchen. […]\n(§8) Das therapeutische Potenzial der EP300/CREBBP-Hemmung durch die Substanz CCS1477 wurde untersucht. […] Die Wirkung der EP300-Hemmung auf das vaskuläre Remodelling wurde durch Quantifizierung der prozentualen medialen Wanddicke in den mit der Substanz CCS1477 inkubierten PCLS im Vergleich zu den mit DMSO inkubierten Kontrollen bewertet. […]"}, "MCT-PAH": {"system": "MCT-PAH", "test": "MCT-PAH rat model: right heart catheterisation and histology", "type": "in vivo, SD-Ratten", "settings": "MCT-PAH rats, three times weekly for two weeks", "source_text": "as §3, §4, §5"}, "PAH-SMCs [4]": {"system": "PAH-SMCs", "test": "Cell proliferation (hyperproliferative phenotype) in PAH smooth muscle cells", "type": "cell-based, Mensch", "settings": "vs. DMSO", "source_text": "as §6, §7, §8"}, "SuHx-PAH": {"system": "SuHx-PAH", "test": "SuHx-PAH rat model (SUGEN5416/chronic hypoxia): right heart catheterisation and histology", "type": "in vivo, SD-Ratten", "settings": "three times weekly for two weeks", "source_text": "as §3, §4, §5"}, "[5]": {"settings": "10 mg/kg in 1 % methylcellulose, oral, vs. vehicle"}, "[6]": {"settings": "10 mg/kg oral, TPR = mPAP divided by CO"}, "[7]": {"settings": "SUGEN5416/chronic hypoxia PAH rats, 10 mg/kg oral, vs. vehicle"}, "[8]": {"settings": "SuHx-PAH rats, 10 mg/kg in 1 % methylcellulose, oral, vs. vehicle"}}, "data": [{"smiles": "CO[C@H]1CC[C@H](n2c([C@@H]3CCCC(=O)N3c3ccc(F)c(F)c3)nc3cc(-c4c(C)noc4C)ccc32)CC1", "note": "[CCS1477, (S)-1-(3,4-difluorophenyl)-6-(5-(3,5-dimethylisoxazol-4-yl)-1-((1r,4S)-4-methoxycyclohexyl)-1H-benzo[d]imidazol-2-yl)piperidin-2-on]", "values": [{"measurement": "mediale Wanddicke der umgestalteten PAs", "setting": "PAH-PCLS", "result": "signifikante Verringerung der medialen Wanddicke"}, {"measurement": "hyperproliferativer Phänotyp (Zellproliferation, Einbau von BrdU)", "setting": "PAH-FBs [1]", "result": "schwächte den hyperproliferativen Phänotyp und die Apoptoserate von PAH-FBs und PAH-SMCs deutlich ab"}, {"measurement": "RVSP", "setting": "FHR-PAH; [5]", "result": "signifikanten Senkung"}, {"measurement": "mPAP", "setting": "FHR-PAH; [5]", "result": "signifikanten Senkung"}, {"measurement": "mediale Wanddicke der distalen PAs", "setting": "FHR-PAH; 10 mg/kg oral", "result": "signifikant verringert"}, {"measurement": "molekulare Marker für Myokardhypertrophie", "setting": "FHR-PAH; 10 mg/kg oral", "result": "signifikant abgeschwächt"}, {"measurement": "CO", "setting": "FHR-PAH; 10 mg/kg oral, vs. vehicle", "result": "verbesserten sich nach der Behandlung mit der Substanz CCS1477 bei FHR-PAH und MCT-PAH signifikant"}, {"measurement": "SV", "setting": "FHR-PAH; 10 mg/kg oral, vs. vehicle", "result": "verbesserten sich nach der Behandlung mit der Substanz CCS1477 bei FHR-PAH und MCT-PAH signifikant"}, {"measurement": "TPR", "setting": "FHR-PAH; [6]", "result": "signifikanten Senkung"}, {"measurement": "Apoptoserate (Induktion von Apoptose, Cell Death Detection ELISAPLUS)", "setting": "PAH-FBs [2]", "result": "schwächte den hyperproliferativen Phänotyp und die Apoptoserate von PAH-FBs und PAH-SMCs deutlich ab"}, {"measurement": "Apoptoserate", "setting": "PAH-SMCs [3]", "result": "schwächte den hyperproliferativen Phänotyp und die Apoptoserate von PAH-FBs und PAH-SMCs deutlich ab"}, {"measurement": "RVSP", "setting": "MCT-PAH; [5]", "result": "signifikanten Senkung"}, {"measurement": "mPAP", "setting": "MCT-PAH; [5]", "result": "signifikanten Senkung"}, {"measurement": "mediale Wanddicke der distalen PAs", "setting": "MCT-PAH; 10 mg/kg oral", "result": "signifikant verringert"}, {"measurement": "CO", "setting": "MCT-PAH; 10 mg/kg oral, vs. vehicle", "result": "verbesserten sich nach der Behandlung mit der Substanz CCS1477 bei FHR-PAH und MCT-PAH signifikant"}, {"measurement": "SV", "setting": "MCT-PAH; 10 mg/kg oral, vs. vehicle", "result": "verbesserten sich nach der Behandlung mit der Substanz CCS1477 bei FHR-PAH und MCT-PAH signifikant"}, {"measurement": "TPR", "setting": "MCT-PAH; [6]", "result": "signifikanten Senkung"}, {"measurement": "hyperproliferativer Phänotyp", "setting": "PAH-SMCs [4]", "result": "schwächte den hyperproliferativen Phänotyp und die Apoptoserate von PAH-FBs und PAH-SMCs deutlich ab"}, {"measurement": "CO", "setting": "SuHx-PAH; [7]", "result": "verbesserte CO und SV auch bei SUGEN5416/chronischer Hypoxie-PAH signifikant"}, {"measurement": "SV", "setting": "SuHx-PAH; [7]", "result": "verbesserte CO und SV auch bei SUGEN5416/chronischer Hypoxie-PAH signifikant"}, {"measurement": "RVSP", "setting": "SuHx-PAH; [8]", "result": "signifikanten Senkung"}, {"measurement": "mPAP", "setting": "SuHx-PAH; [8]", "result": "signifikanten Senkung"}, {"measurement": "mediale Wanddicke der distalen PAs", "setting": "SuHx-PAH; SuHx-PAH rats, 10 mg/kg oral", "result": "signifikant verringert"}, {"measurement": "TPR", "setting": "SuHx-PAH; SuHx-PAH rats, 10 mg/kg oral, TPR = mPAP divided by CO", "result": "signifikanten Senkung"}]}]}
